Reference: patent US11192900B2, “Substituted 1,6-dihydropyridinones and 1,2-dihydroisoquinolinones as bet inhibitors” (NUVATION BIO INC., priority 2018, dated 2021)

Columns and labels:
BRD4-1 = BRD4-1 (Homo sapiens (Human), UniProt O60885); assay: Bromodomain and Extraterminal Domain (BET) Binding Assay; conditions: Table 3; read-out: BRD4-1 IC50
Procedure: (§1) The bromodomain binding assays were performed by Reaction Biology Corp., Malvern, Pa., USA (www.reactionbiology.com). The BET binding assays were conducted in 384 well microplates in assay buffer (50 mM HEPES-HCl, pH 7.5, 100 mM NaCl, 1 mg/ml BSA, 0.05% CHAPS, and 0.5% DMSO) with compounds added as DMSO stocks at a single concentration or with 10-point dose response titrations. BET protein or assay buffer were delivered to the appropriate wells of the microplate. Test compound was then delivered by acoustic technology via a Labcyte Echo550 liquid handler. The microplate was centrifuged for 5 min and pre-incubated for 30 min at RT with gentle shaking. The ligand (histone H4 peptide (1-21) K5/8/12/16Ac-biotin) was delivered and the microplate was again centrifuged for 5 min and allowed to incubate for 30 min at RT with gentle shaking. Donor beads were then added in the absence of light and the microplate was centrifuged and gently shaken. After 5 min, acceptor beads were added in the absence of light and the microplate was centrifuged and gently shakenin the dark for 60 min. The microplate was read using a Perkin Elmer EnSpire Alpha plate reader (λEx/λEm=680/520-620 nm). Percent inhibition was calculated relative to positive and negative controls on a per plate basis. For titration experiments, IC50 values were determined by fitting the percent inhibition versus compound concentration.

BRD4-2 = BRD4-2 (Homo sapiens (Human), UniProt O60885); assay: as above; conditions: Table 3; read-out: BRD4-2 IC50
Procedure: as §1

c-Myc = assay: Measurement of c-Myc suppression after washoff (Western blot); type: cell-based, human; conditions: MV4-11, 2 μM for 2 hr, washed, further 6 hr
Procedure: MV4-11 cells were incubated with 2 μM of JQ1, mivebresib or a test compound for 2 hr. The cells were then washed twice with fresh culture medium and further cultured for another 6 hr. Cells were extracted with SDS sample buffers and then subjected to Western blot analysis to measure c-Myc. Compounds 2, 3, 12, 17, 409, 411 and 412 were tested in these assays.

[1] = system: MV-4-11 human acute myeloid leukemia cell line; assay: Second cell viability assay in MV-4-11 (Cell Titer-Glo); type: cell-based; conditions: Homo sapiens; MV4-11, Cell Titer-Glo, 72 hrs; read-out: Cell Viability IC50 in MV4-11 cells
Procedure: The effects of test compounds were studied in a second cell viability assay in the MV-4-11 human acute myeloid leukemia cell line. The cells were harvested during the logarithmic growth period and counted. Cells were seeded at a count of 15000 cells per well/100 μl. After seeding, cells were incubated at 37° C., 5% CO2 for 1 hr. Cells were treated with test compounds at 8 concentrations within a desired concentration range (e.g. 5 nM-[…]) for generation of dose response curves by preparing serial dilutions of the test compound in DMSO which were further diluted with culture medium and then added to each well. The plate was further incubated for another 72 hrs in a humidified incubator at 37° C. and 5% CO2. The assay was terminated by addition of Cell Titer-Glo reagent (Promega, Madison, Wis.) at ¼ the volume of total medium per well. Contents were mixed, the plate was incubated for 10 min at room temperature and luminescence was measured. Cell viability data were plotted using GraphPad Prism (GraphPad Software, Inc., San Diego, Calif.). In addition, a nonlinear regression model with a sigmoidal dose response and variable slope within GraphPad Prism was used to calculate the IC50 value of individual test compounds.

SMILES | IC50 (BRD4-1) [nM] | IC50 (BRD4-2) [nM] | IC50 [1] [nM] | c-Myc suppression activity after washoff (c-Myc)
C#CC(=O)Nc1ccc(Oc2ccc(F)cc2F)c(-c2cc(NC)c(=O)n(C)c2)c1 [Compound 2, N-(4-(2,4-difluorophenoxy)-3-(1-methyl-5-(methylamino)-6-oxo-1,6-dihydropyridin-3-yl)phenyl)propiolamide] | 52 | 117 |  | less durable or no suppression activity
C=CC(=O)Nc1ccc(Oc2ccc(F)cc2F)c(-c2cc(N(C)C)c(=O)n(C)c2)c1 [Compound 29, N-(4-(2,4-difluorophenoxy)-3-(5-(dimethylamino)-1-methyl-6-oxo-1,6-dihydropyridin-3-yl)phenyl)acrylamide] | 30 | 15 |  | 
C=CC(=O)Nc1ccc(Nc2ccc(F)cc2F)c(-c2cn(C)c(=O)c3ccccc23)c1 [Compound 305, N-(4-(2,4-difluorophenylamino)-3-(2-methyl-1-oxo-1,2-dihydroisoquinolin-4-yl)phenyl)acrylamide] | 1710 | 2170 |  | 
C=CC(=O)Nc1ccc(Nc2c(C)cccc2C)c(-c2cn(C)c(=O)c3ccccc23)c1 [Compound 313, N-(4-(2,6-dimethylphenylamino)-3-(2-methyl-1-oxo-1,2-dihydroisoquinolin-4-yl)phenyl)acrylamide] | > 10000 | 885 |  | 
C=CS(=O)(=O)Nc1ccc(Oc2ccc(F)cc2F)c(-c2cc(N)c(=O)n(C)c2)c1 [Compound 17, N-(3-(5-amino-1-methyl-6-oxo-1,6-dihydropyridin-3-yl)-4-(2,4-difluorophenoxy)phenyl)ethenesulfonamide] |  | 119 | 84 | sustained c-Myc suppression activity
C=CC(=O)Nc1ccc(Oc2c(C)cccc2C)c(-c2cn(C)c(=O)c3ccccc23)c1 [Compound 397, N-(4-(2,6-dimethylphenoxy)-3-(2-methyl-1-oxo-1,2-dihydroisoquinolin-4-yl)phenyl)acrylamide] | 9710 | 549 |  | 
C/C=C/S(=O)(=O)Nc1ccc(Oc2ccc(F)cc2F)c(-c2cn(C)c(=O)c3ccccc23)c1 [Compound 86, (E)-N-(4-(2,4-difluorophenoxy)-3-(2-methyl-1-oxo-1,2-dihydroisoquinolin-4-yl)phenyl)prop-1-ene-1-sulfonamide] |  | 80 | 273 | 
C=CC(=O)Nc1ccc(Oc2c(C)cccc2C)c(-c2cn(C)c(=O)c3sc(C(=O)NCC)cc23)c1 [Compound 381, 4-(5-acrylamido-2-(2,6-dimethylphenoxy)phenyl)-N-ethyl-6-methyl-7-oxo-6,7-dihydrothieno[2,3-c]pyridine-2-carboxamide] | 12500 | 13 | 172 | 
C=CC(=O)Nc1ccc(Oc2ccc(F)cc2F)c(-c2cc(NC)c(=O)n(C)c2)c1 [Compound 1, N-(4-(2,4-difluorophenoxy)-3-(1-methyl-5-(methylamino)-6-oxo-1,6-dihydropyridin-3-yl)phenyl)acrylamide] | 188 | 64 |  | 
C=CC(=O)Nc1ccc(Oc2c(C)cc(F)cc2C)c(-c2cc(NC)c(=O)n(C)c2)c1 [Compound 167, N-(4-(4-fluoro-2,6-dimethylphenoxy)-3-(1-methyl-5-(methylamino)-6-oxo-1,6-dihydropyridin-3-yl)phenyl)acrylamide] | 424 | 17 | 97 | 
C=CS(=O)(=O)Nc1ccc(Oc2ccc(OC)cc2)c(-c2cn(C)c(=O)c3ccccc23)c1 [Compound 12, N-(4-(4-methoxyphenoxy)-3-(2-methyl-1-oxo-1,2-dihydroisoquinolin-4-yl)phenyl)ethenesulfonamide] |  | 37 |  | less durable or no suppression activity
C=CS(=O)(=O)Nc1ccc(Oc2ccc(F)cc2F)c(-c2cc(N(C)C)c(=O)n(C)c2)c1 [Compound 16, N-(4-(2,4-difluorophenoxy)-3-(5-(dimethylamino)-1-methyl-6-oxo-1,6-dihydropyridin-3-yl)phenyl)ethenesulfonamide] | 6 | 26 |  | 
CCS(=O)(=O)Nc1ccc(Oc2ccc(F)cc2F)c(-c2cn(C)c(=O)c3[nH]ccc23)c1 [mivebresib, reference compound] |  |  |  | rebound in c-Myc expression
C=CC(=O)Nc1ccc(Oc2ccc(F)cc2)c(-c2cc(NC)c(=O)n(C)c2)c1 [Compound 30, N-(4-(4-fluorophenoxy)-3-(1-methyl-5-(methylamino)-6-oxo-1,6-dihydropyridin-3-yl)phenyl)acrylamide] | 104 | 57 |  | 
C=CC(=O)Nc1ccc(Oc2ccc(C)cc2)c(-c2cn(C)c(=O)c3ccccc23)c1 [Compound 25, N-(3-(2-methyl-1-oxo-1,2-dihydroisoquinolin-4-yl)-4-(p-tolyloxy)phenyl)acrylamide] |  | 264 |  | 
C=CS(=O)(=O)Nc1ccc(Oc2ccc(F)cc2F)c(-c2c[nH]c(=O)c(NC)c2)c1 [Compound 22, N-(4-(2,4-difluorophenoxy)-3-(5-(methylamino)-6-oxo-1,6-dihydropyridin-3-yl)phenyl)ethenesulfonamide] |  | 3850 |  | 

Second part, led by results:

IC50 (BRD4-1) [nM] | IC50 (BRD4-2) [nM] | IC50 [1] [nM] | SMILES | c-Myc suppression activity after washoff (c-Myc)
 | 11 | 45 | C#CC(=O)Nc1ccc(Oc2c(C)cccc2C)c(-c2cn(C)c(=O)c3cc(C(=O)NCC)sc23)c1 [Compound 587, 7-(2-(2,6-dimethylphenoxy)-5-propiolamidophenyl)-N-ethyl-5-methyl-4-oxo-4,5-dihydrothieno[3,2-c]pyridine-2-carboxamide] | 
226 | 1 | 33 | C=CC(=O)Nc1ccc(Oc2c(C)cccc2C)c(-c2cn(C)c(=O)cc2OC)c1 [Compound 584, N-(4-(2,6-dimethylphenoxy)-3-(4-methoxy-1-methyl-6-oxo-1,6-dihydropyridin-3-yl)phenyl)acrylamide] | less durable activity
7370 | 2 |  | C/C=C/C(=O)Nc1ccc(Oc2c(C)cccc2C)c(-c2cn(C)c(=O)c3cc(C(=O)NCC)sc23)c1 [Compound 611, (E)-7-(5-but-2-enamido-2-(2,6-dimethylphenoxy)phenyl)-N-ethyl-5-methyl-4-oxo-4,5-dihydrothieno[3,2-c]pyridine-2-carboxamide] | 
 | 78 | 254 | C=CC(=O)Nc1ccc(Oc2c(F)cccc2F)c(-c2cn(C)c(=O)c3ccccc23)c1 [Compound 583, N-(4-(2,6-difluorophenoxy)-3-(2-methyl-1-oxo-1,2-dihydroisoquinolin-4-yl)phenyl)acrylamide] | 
7190 | 12 | 181 | C=CC(=O)Nc1ccc(Oc2c(C)cccc2C)c(-c2cn(C)c(=O)cc2OC(C)C)c1 [Compound 589, N-(4-(2,6-dimethylphenoxy)-3-(4-isopropoxy-1-methyl-6-oxo-1,6-dihydropyridin-3-yl)phenyl)acrylamide] | 
11 | 4 | 38 | CCS(=O)(=O)Nc1ccc(Oc2ccc(F)cc2F)c(-n2cc(C)c(=O)c3ccccc32)c1 [Compound 616, N-(4-(2,4-difluorophenoxy)-3-(3-methyl-4-oxoquinolin-1(4H)-yl)phenyl) ethanesulfonamide] | 
15900 | 434 |  | C=CC(=O)Nc1ccc(Oc2c(C)cc(F)cc2C)c(-c2cn(C)c(=O)c3ccccc23)c1 [Compound 408, N-(4-(4-fluoro-2,6-dimethylphenoxy)-3-(2-methyl-1-oxo-1,2-dihydroisoquinolin-4-yl)phenyl)acrylamide] | 
 | 27 | 6020 | C=CC(=O)Nc1ccc(Oc2ccc(F)cc2F)c(-n2cc(C)c(=O)c3ccccc32)c1 [Compound 613, N-(4-(2,4-difluorophenoxy)-3-(3-methyl-4-oxoquinolin-1(4H)-yl)phenyl)acrylamide] | 
 | 758 |  | Cc1cccc(C)c1Oc1ccc(NC(=O)/C=C/CN(C)C)cc1-c1cn(C)c(=O)c2ccccc12 [Compound 410, (E)-4-(dimethylamino)-N-(4-(2,6-dimethylphenoxy)-3-(2-methyl-1-oxo-1,2-dihydroisoquinolin-4-yl)phenyl)but-2-enamide] | 
